This passage reports Ki, Ratio Ki and Activity results from ChEMBL document CHEMBL3407341, “Synthesis and biological evaluation of 2-aryliminopyrrolidines as selective ligands for I1 imidazoline receptors: discovery of new sympatho-inhibitory hypotensive agents with potential beneficial effects in metabolic syndrome” (J Med Chem, 2015).

In general, Ki refers to a measure of affinity in units of concentration, obtained from inhibition or displacement.

In assay [1] the target is T1, Adrenergic receptor alpha-2 (Homo sapiens, UniProt P08913+P18825+P18089).
T1 sequence (P08913 whole entry): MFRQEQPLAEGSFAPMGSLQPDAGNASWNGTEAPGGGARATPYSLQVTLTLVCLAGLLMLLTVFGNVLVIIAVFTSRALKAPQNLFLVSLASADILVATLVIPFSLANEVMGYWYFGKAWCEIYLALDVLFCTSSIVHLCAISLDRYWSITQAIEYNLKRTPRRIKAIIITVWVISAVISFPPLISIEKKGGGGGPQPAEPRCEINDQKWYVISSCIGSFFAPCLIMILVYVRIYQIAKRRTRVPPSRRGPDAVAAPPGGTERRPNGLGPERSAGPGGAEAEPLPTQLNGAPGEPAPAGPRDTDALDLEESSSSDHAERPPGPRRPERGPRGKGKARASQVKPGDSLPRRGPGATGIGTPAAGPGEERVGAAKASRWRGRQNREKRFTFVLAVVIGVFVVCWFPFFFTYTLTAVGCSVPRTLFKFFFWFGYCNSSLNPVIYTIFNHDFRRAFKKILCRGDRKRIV
T1 sequence (P18825 whole entry): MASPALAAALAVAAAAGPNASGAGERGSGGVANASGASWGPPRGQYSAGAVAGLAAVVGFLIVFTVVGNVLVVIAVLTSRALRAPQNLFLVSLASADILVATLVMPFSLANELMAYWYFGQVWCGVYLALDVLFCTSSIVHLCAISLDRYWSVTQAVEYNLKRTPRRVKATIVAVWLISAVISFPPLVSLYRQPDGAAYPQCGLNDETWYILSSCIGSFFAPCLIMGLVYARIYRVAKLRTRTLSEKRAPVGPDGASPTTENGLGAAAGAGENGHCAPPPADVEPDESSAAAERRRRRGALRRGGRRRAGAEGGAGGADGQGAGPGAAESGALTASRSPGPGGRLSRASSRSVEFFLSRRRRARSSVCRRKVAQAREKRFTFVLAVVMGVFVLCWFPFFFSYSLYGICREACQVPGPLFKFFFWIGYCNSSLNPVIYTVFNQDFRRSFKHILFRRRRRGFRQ
T1 sequence (P18089 whole entry): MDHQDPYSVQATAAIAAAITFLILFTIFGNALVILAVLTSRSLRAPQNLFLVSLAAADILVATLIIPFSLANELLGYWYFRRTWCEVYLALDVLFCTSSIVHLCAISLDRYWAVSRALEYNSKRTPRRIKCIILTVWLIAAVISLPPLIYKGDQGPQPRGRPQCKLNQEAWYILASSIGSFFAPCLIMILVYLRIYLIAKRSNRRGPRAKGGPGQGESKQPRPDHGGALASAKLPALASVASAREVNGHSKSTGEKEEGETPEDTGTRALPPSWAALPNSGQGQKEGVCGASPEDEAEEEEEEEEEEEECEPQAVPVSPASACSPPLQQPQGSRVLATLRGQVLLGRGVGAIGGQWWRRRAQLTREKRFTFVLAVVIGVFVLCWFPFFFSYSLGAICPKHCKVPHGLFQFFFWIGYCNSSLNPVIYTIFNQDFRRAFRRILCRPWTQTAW
The assay can be described thus: Displacement of [3H]RX821002 from human alpha2 adrenoceptor expressed in CHO cell membranes after 60 mins. The assay is classed as cell-based. On the technique in general: Displacement assays read how much labelled ligand stays bound in the presence of the test substance.

A further assay concerns CHO. Kind of assay: Selectivity ratio of Ki for I1 imidazoline receptor in rat PC12 cells to Ki for human alpha2 adrenoceptor expressed in CHO cell membranes. The assay is classed as cell-based.
A further assay concerns the target Nischarin (Rattus norvegicus, UniProt Q4G017). The assay can be described thus: Displacement of [125I] PIC from I1 imidazoline receptor in rat PC12 cells after 45 mins by gamma counting. The assay is classed as cell-based, PC-12.
In assay [2] the test system is Rattus norvegicus. The assay can be described thus: Reduction in heart rate in normotensive anaesthetized Wistar rat at 0.3 mg/kg administered intracisternally. The format is functional.
In assay [3] the test system is Rattus norvegicus. The assay can be described thus: Reduction in mean arterial blood pressure in normotensive anaesthetized Wistar rat at 0.3 mg/kg administered intracisternally. The assay is classed as functional.
For assay [4], the system named is Rattus norvegicus. Kind of assay: Reduction in heart rate in normotensive anaesthetized Wistar rat at 10 mg/kg, iv. Details: scale not given: the % may be the effect or the level left.
Assay [5] relates to Rattus norvegicus. The assay can be described thus: Reduction in mean arterial blood pressure in normotensive anaesthetized Wistar rat at 10 mg/kg, iv. Details: scale not given: the % may be the effect or the level left.
For assay [6], the system named is Rattus norvegicus. Kind of assay: Reduction in heart rate in normotensive anaesthetized Wistar rat at 10 mg/kg, iv. The assay is classed as functional. Also on record: scale not given: the % may be the effect or the level left.
The subject of assay [7] is Rattus norvegicus. The assay can be described thus: Reduction in mean arterial blood pressure in normotensive anaesthetized Wistar rat at 3 mg/kg, iv. Also on record: scale not given: the % may be the effect or the level left.
The test system of assay [8] is Rattus norvegicus. The assay can be described thus: Reduction in heart rate in normotensive anaesthetized Wistar rat at 3 mg/kg, iv. Details: scale not given: the % may be the effect or the level left.

Calls of active or inactive are those of the source. No cut-off for these calls is given here.

Chain of Nischarin (Q4G017 whole entry): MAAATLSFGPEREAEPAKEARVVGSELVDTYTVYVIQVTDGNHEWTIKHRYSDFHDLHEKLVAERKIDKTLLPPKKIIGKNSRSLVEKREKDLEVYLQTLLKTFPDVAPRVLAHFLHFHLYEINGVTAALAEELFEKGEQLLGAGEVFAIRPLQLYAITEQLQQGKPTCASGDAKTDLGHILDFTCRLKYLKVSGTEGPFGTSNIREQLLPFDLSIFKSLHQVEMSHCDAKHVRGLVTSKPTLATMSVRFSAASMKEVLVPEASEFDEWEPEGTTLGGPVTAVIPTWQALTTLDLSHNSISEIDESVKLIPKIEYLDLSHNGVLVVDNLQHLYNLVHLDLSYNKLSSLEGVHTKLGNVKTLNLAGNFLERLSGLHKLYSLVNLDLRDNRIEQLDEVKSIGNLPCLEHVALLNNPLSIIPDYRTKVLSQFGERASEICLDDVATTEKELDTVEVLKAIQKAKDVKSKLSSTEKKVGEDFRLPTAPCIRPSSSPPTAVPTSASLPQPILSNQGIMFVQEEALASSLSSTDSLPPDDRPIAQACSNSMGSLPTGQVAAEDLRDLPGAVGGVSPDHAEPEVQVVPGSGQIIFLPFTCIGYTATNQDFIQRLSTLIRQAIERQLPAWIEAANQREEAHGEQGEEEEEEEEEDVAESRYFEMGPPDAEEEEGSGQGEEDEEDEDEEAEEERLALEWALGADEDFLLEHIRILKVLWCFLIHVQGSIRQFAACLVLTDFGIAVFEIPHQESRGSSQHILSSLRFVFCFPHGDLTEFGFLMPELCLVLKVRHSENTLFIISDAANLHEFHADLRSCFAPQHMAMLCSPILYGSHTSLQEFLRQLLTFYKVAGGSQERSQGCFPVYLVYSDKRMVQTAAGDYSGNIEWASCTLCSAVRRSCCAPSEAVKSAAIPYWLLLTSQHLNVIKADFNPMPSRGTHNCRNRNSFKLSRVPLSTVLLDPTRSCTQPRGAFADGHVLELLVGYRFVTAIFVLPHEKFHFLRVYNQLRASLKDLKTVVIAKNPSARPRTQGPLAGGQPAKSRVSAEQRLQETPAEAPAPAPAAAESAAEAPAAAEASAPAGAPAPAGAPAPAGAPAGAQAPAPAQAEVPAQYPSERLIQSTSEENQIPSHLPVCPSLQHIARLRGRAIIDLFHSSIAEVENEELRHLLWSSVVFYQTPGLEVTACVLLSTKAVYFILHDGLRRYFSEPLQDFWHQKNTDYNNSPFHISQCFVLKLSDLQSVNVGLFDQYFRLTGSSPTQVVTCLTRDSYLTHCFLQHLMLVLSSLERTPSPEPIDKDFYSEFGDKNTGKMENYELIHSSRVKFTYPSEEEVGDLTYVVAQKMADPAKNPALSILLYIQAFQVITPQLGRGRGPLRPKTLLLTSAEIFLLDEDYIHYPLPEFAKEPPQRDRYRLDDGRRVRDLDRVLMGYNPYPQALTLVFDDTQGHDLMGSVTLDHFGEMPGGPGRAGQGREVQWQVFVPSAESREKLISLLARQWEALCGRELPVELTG

In the case of `C1COC(NC(C2CC2)C2CC2)=N1` [RILMENIDINE], the inhibitory constant (Ki) in [1] was 180 nM; at Nischarin (read-out: Ki) it was 83.1 nM. Moreover, the Ratio Ki with CHO turned out to be 2.1.

Take `CC1CC/C(=N/c2ccc3c(c2)CCC3)N1.Cl` (stereo not drawn): the outcome in the assay on Rattus norvegicus [2] and with Rattus norvegicus [3] was inactive. The Activity with Rattus norvegicus [4] came out at 4%; in the assay with Rattus norvegicus [5], 8%.

Consider `COc1nc(C)nc(Cl)c1N=C1NCCN1` [MOXONIDINE], for which, on Nischarin (read-out: Ki), the Ki is 77.8 nM.

Take `CC1CC/C(=N/c2cc3c(cc2Cl)CCC3)N1.Cl` (stereo not drawn): the result in the assay on Rattus norvegicus [2] and in the assay on Rattus norvegicus [3] was inactive. The Activity in the assay on Rattus norvegicus [4] is listed as 3%; with Rattus norvegicus [5] it was 9%.

Consider `CC1CC/C(=N\c2cc(N=[N+]=[N-])c(I)cc2Cl)N1` (stereo not drawn), for which the Ki was greater than 2240 nM in assay [1] and 6.03 nM at Nischarin (read-out: Ki).

Regarding `Cc1ccc(Cl)c(/N=C2\CCC(C)N2)c1.Cl` (stereo not drawn), the result with Rattus norvegicus [2] and in the assay on Rattus norvegicus [3] was inactive. Moreover, the Activity with Rattus norvegicus [4] and with Rattus norvegicus [5] was 7% throughout.

Consider `CC1CCC(Nc2ccc(Cl)c3c2CCC3)=N1` (stereo not drawn), for which the outcome with Rattus norvegicus [2] and in the assay with Rattus norvegicus [3] was inactive. For the same compound, the Ki at Nischarin (read-out: Ki) came to 2.8 nM.

For `CC1CN/C(=N\c2cccc3c2CCCC3)C1.Cl` (stereo not drawn), the outcome with Rattus norvegicus [2] and in the assay with Rattus norvegicus [3] was inactive. Also, the Activity with Rattus norvegicus [4] is recorded as 3%; with Rattus norvegicus [5] it was 5%.

As to `Cc1ccc(F)c(/N=C2\CCC(C)N2)c1.Cl` (stereo not drawn), the result in the assay on Rattus norvegicus [2] and in the assay on Rattus norvegicus [3] was inactive. The figures for the Activity in the assay on Rattus norvegicus [4] and with Rattus norvegicus [5] were 6% and 9%, respectively.

In the case of `Cc1cc(F)ccc1/N=C1\CCC(C)N1.Cl` (stereo not drawn), the result in the assay with Rattus norvegicus [2] and with Rattus norvegicus [3] was inactive. Moreover, the Activity in the assay on Rattus norvegicus [4] was 8%; in the assay with Rattus norvegicus [5], 6%.

`CC1CC(NC(C2CC2)C2CC2)=NC1C` (stereo not drawn): the figures for the Ki (in assay [1]; on Nischarin) were greater than 10000 nM and 537 nM, respectively.

For `Cc1ccc(F)c(C2=NCCN2)c1`, the Ki is greater than 10000 nM in assay [1] and 5.3 nM at Nischarin (read-out: Ki).

`CC1CN/C(=N\c2ccc(Cl)c3c2CCC3)C1.Cl` (stereo not drawn) showed an inhibition constant Ki in assay [1] greater than 10000 nM. Besides, the Activity came to 6% with Rattus norvegicus [4] and 10% in the assay on Rattus norvegicus [5].

As for `Cc1ccc(/N=C2/CC(C)CN2)c2c1CCC2.Cl` (stereo not drawn), the Activity in the assay on Rattus norvegicus [2] is reported as 15%; in the assay on Rattus norvegicus [3], 32%; in the assay on Rattus norvegicus [4] it was 22%; with Rattus norvegicus [5], 26%. Also, in assay [1], the Ki is on record as greater than 10000 nM.

Consider `Cc1c(Cl)cccc1/N=C1\CCC(C)N1.Cl` (stereo not drawn), for which the Activity is 30% in the assay with Rattus norvegicus [2], 25% in the assay on Rattus norvegicus [3], 20% in the assay on Rattus norvegicus [4] and 28% in the assay with Rattus norvegicus [5]. The Ki in assay [1] was greater than 10000 nM; at Nischarin (read-out: Ki), 27 nM.

For the compound `Cc1cccc(/N=C2\CCC(C)N2)c1C.Cl` (stereo not drawn), the Activity in the assay on Rattus norvegicus [2] is on record as 25%; in the assay on Rattus norvegicus [3] it was 20%; with Rattus norvegicus [4], 18%; with Rattus norvegicus [5], 25%. Further, the Ki in assay [1] was greater than 10000 nM; on Nischarin (read-out: Ki) it was 70 nM.

In assay [1], `CC1CNC(Nc2c(Cl)cccc2Cl)=N1` (stereo not drawn) gave a Ki greater than 1949 nM.

Consider `NC1=NCC(COc2ccccc2Br)O1` (stereo not drawn), for which the Ki in [1] was greater than 10000 nM; on Nischarin (read-out: Ki) it was 6.4 nM.

`CC1CC/C(=N/c2cccc3c2CCCC3)N1.Cl` (stereo not drawn): the Activity amounted to 10% in the assay on Rattus norvegicus [2], 29% in the assay with Rattus norvegicus [3], 26% in the assay with Rattus norvegicus [4] and 37% with Rattus norvegicus [5]. In addition, the Ki in assay [1] is greater than 10000 nM; on Nischarin (read-out: Ki) it was 73 nM.

Consider `CC1CN=C(Nc2ccc(Cl)c3c2CCC3)C1` (stereo not drawn), for which the result with Rattus norvegicus [2] and in the assay with Rattus norvegicus [3] was inactive. The inhibition constant (Ki) on Nischarin (read-out: Ki) amounted to 0.22 nM.

As for `Cc1cccc(/N=C2\CC(C)CN2)c1C.Cl` (stereo not drawn), the Activity amounted to 31% in the assay on Rattus norvegicus [2], 20% in the assay with Rattus norvegicus [6], 26% in the assay on Rattus norvegicus [7] and 25% in the assay on Rattus norvegicus [3]. Moreover, the Ki in [1] amounted to 10000 nM; at Nischarin (read-out: Ki), 42 nM.

On to `CC1CN/C(=N\c2ccc3c(c2)CCC3)C1.Cl` (stereo not drawn), for which the outcome in the assay on Rattus norvegicus [2] and with Rattus norvegicus [3] was inactive. Besides, the Activity in the assay on Rattus norvegicus [4] worked out at 4%; in the assay with Rattus norvegicus [5], 8%.

On to `Cc1c(Cl)cccc1/N=C1\CC(C)CN1.Cl` (stereo not drawn), for which the Activity with Rattus norvegicus [8] is recorded as 18%; with Rattus norvegicus [2], 33%; with Rattus norvegicus [7] it was 30%; with Rattus norvegicus [3], 30%. In assay [1], this compound returned a Ki greater than 10000 nM.

As for `Cc1cccc(C)c1/N=C1/CCC(C)N1.Cl` (stereo not drawn), the result in the assay on Rattus norvegicus [2] and with Rattus norvegicus [3] was inactive. For the same compound, the Activity was determined as 4% in the assay with Rattus norvegicus [4] and 5% in the assay with Rattus norvegicus [5].

On to `Cc1c(Cl)cccc1NC1=NCC(C)C1` (stereo not drawn), for which, in the assay on CHO, the Ratio Ki was greater than 3000. Further, the Ki on Nischarin (read-out: Ki) stood at 3.2 nM.

For the compound `CC1CC/C(=N/c2cccc3c2CCC3)N1.Cl` (stereo not drawn), the Activity in the assay with Rattus norvegicus [2] came out at 29%; in the assay on Rattus norvegicus [3], 32%; with Rattus norvegicus [4] it was 20%; with Rattus norvegicus [5], 37%. Further, the values for the Ki (in assay [1]; on Nischarin (read-out: Ki)) were greater than 10000 nM and 19 nM, respectively.

For `CC1CN/C(=N\c2cccc3c2CCC3)C1.Cl` (stereo not drawn), the Activity in the assay on Rattus norvegicus [2] was found to be 30%; in the assay with Rattus norvegicus [6], 22%; in the assay on Rattus norvegicus [7], 35%; in the assay with Rattus norvegicus [3], 30%. The figures for the Ki (in assay [1]; on Nischarin (read-out: Ki)) were greater than 10000 nM and 19 nM, respectively.

Regarding `Clc1cccc(Cl)c1N=C1NCCN1` [CLONIDINE], the Ki at Nischarin (read-out: Ki) was 14.1 nM.

On to `CC1CC/C(=N/c2ccc(Cl)c3c2CCC3)N1.Cl` (stereo not drawn), for which the inhibition constant (Ki) in [1] was greater than 10000 nM. Also, the Activity was determined as 7% with Rattus norvegicus [4] and 6% with Rattus norvegicus [5].

Turning to `CC1CCC(Nc2ccc(I)cc2Cl)=N1` (stereo not drawn), the figures for the Ki (in assay [1]; on Nischarin (read-out: Ki)) were greater than 2500 nM and 0.2 nM, respectively.
